# Experiments:
# [1] = system: cisplatin-induced acute vomiting in dogs; assay: Cisplatin-induced acute vomiting in dogs, compound orally given; format: in vivo, beagle dogs; conditions: cisplatin 3 mg/kg i.v.; for Duration of vomiting (in hour;, mean ± SD) / Frequency of vomiting (mean ± SD) / Number of dogs with vomiting/number of tested dogs / Time period until first vomiting (in hour;, mean ± SD): 5 hours
# Procedure: 3 or 4 beagle dogs (7.9 to 13.3 kg), male or female, were used per one group. Cisplatin was intravenously administered at 3 mg/3 ml/kg. One hour before cisplatin dosing, a small volume of a feed was given to the animals. 30 minutes before cisplatin administration, predetermined doses of the compound No. 3 were orally given. Similarly, 0.5 % methyl cellulose solution was orally given to the control animals under no fasting. The frequency of vomiting was counted in number, up to 5 hours after cisplatin dosing.
# The compound No. 3 was suspended in 0.5 % methyl cellulose solution to predetermined concentrations, for oral dosing at a ratio of 1 ml per 1 kg body weight. Additionally, the 0.5 % methyl cellulose solution was orally given at a ratio of 1 ml per 1 kg body weight. The data relating to the frequency of vomiting, the time period (latency) until first vomiting and the time period from the occurrence of vomiting to the termination thereof were statistically analyzed by the Dunnett test, with reference to the difference from the control group.
# The acute retching suppression ratio and acute vomiting suppression ratio were calculated by the following formula. [Frequency of retching or vomiting in control] - [Frequency of retching or vomiting in animals dosed with the compound No. 3] / [Frequency of retching or vomiting in control] x 100 (%) [formula]
# [2] = system: acute vomiting induced by cisplatin in ferrets; assay: Acute vomiting induced by cisplatin in ferrets, compound intraperitoneally given; format: in vivo; conditions: 1 mg/kg i.p., cisplatin 10 mg/kg i.p.
# Procedure: 6 to 9 male ferrets (1.2 to 1.7 kg) per one group were used. Cisplatin was intraperitoneally given at 10 mg/kg. 30 minutes prior to cisplatin administration, predetermined doses of the compound No. 3 were intraperitoneally given to the animals under fasting. Similarly, PEG 400 was intraperitoneally given to a control animal group under fasting. The frequency of vomiting was counted in number, up to 5 hours after cisplatin administration.
# The compound No. 3 was dissolved in PEG 400, for intraperitoneal dosing at a ratio of 1 ml per 1 kg body weight. Additionally, PEG 400 was intraperitoneally given at a ratio of 1 ml per 1 kg body weight. The data relating to the frequency of vomiting, the latency and the time period from the occurrence of vomiting to the termination thereof were statistically analyzed by the t test, with reference to the difference from the control group.
# The acute retching suppression ratio and acute vomiting suppression ratio were determined in the same manner as in Example 1,3.
# [3] = system: methotrexate-induced delayed vomiting in dogs; assay: Methotrexate-induced delayed vomiting in dogs, oral dosing; format: in vivo, beagle dogs; conditions: methotrexate 2.5 mg/kg i.v.; for Frequency of vomiting (mean ± SD), Total frequency / Number of dogs with vomiting/number of tested dogs: 72 hours
# Procedure: 3 or 4 beagle dogs (8.3 to 12.6 kg), male or female per one group were used. Methotrexate was intravenously administered at 2.5 mg/ml/kg. 8, 24 and 48 hours after methotrexate dosing, predetermined doses of the compound No. 3, ondansetron and 0.5% methyl cellulose solution were orally given. The compound No. 3 and 0.5 % methyl cellulose solution were dosed 30 minutes after a small amount of a feed was given to the animals, while ondansetron was dosed to the animals under fasting. The frequency of vomiting was counted in number, up to 72 hours after methotrexate dosing. The compound No. 3 was suspended in 0.5 % methyl cellulose solution and was then orally dosed at a ratio of 0.25 to 1 ml per 1 kg body weight. A predetermined volume of an ondansetron injection at a concentration of 0.2 w/v % was orally dosed. Additionally, 0.5 % methyl cellulose solution was orally given at a ratio of 1 ml per 1 kg body weight. The data relating to the frequency of vomiting, the latency and the time period from the occurrence of vomiting to the termination thereof were statistically analyzed by the Dunnett test, with reference to the difference from the control group.
# The delayed vomiting suppression ratio and the suppression ratio of the total frequency of vomiting were calculated by the following formula.
structure (smiles),measurement,setting,value
"Cc1ccc(-c2c3n(c(=O)c4ncccc24)CC[C@@H](C)CN(Cc2cc(C(F)(F)F)cc(C(F)(F)F)c2)C3=O)cc1 [Cpd. No.3, (9R)-7-[3,5-bis(trifluoromethyl)benzyl]-6,7,8,9,10,11-hexahydro-9-methyl-5-(4-methylphenyl)-6,13-dioxo-13H-[1,4]diazocino[2,1-g][1,7]naphthylidine]",Suppression ratio of acute vomiting,[1]; 1 mg/kg p.o.,18 % NS
same,"Duration of vomiting (in hour;, mean ± SD)",[1]; 1 mg/kg p.o.,1.5 ± 0.2 h
same,Frequency of vomiting (mean ± SD),[1]; 1 mg/kg p.o.,11.3 ± 0.5
same,Number of dogs with vomiting/number of tested dogs,[1]; 1 mg/kg p.o.,4/4
same,"Time period until first vomiting (in hour;, mean ± SD)",[1]; 1 mg/kg p.o.,1.6 ± 0.2 h
same,Effect on cisplatin-induced vomiting (in words),[1]; 3 mg/kg or higher p.o.,significantly suppressed
same,Suppression ratio of acute vomiting,[1]; 3 mg/kg p.o.,54 % NS
same,"Duration of vomiting (in hour;, mean ± SD)",[1]; 3 mg/kg p.o.,1.1 ± 0.2 h
same,Frequency of vomiting (mean ± SD),[1]; 3 mg/kg p.o.,6.3 ± 0.8 a
same,Number of dogs with vomiting/number of tested dogs,[1]; 3 mg/kg p.o.,4/4
same,"Time period until first vomiting (in hour;, mean ± SD)",[1]; 3 mg/kg p.o.,1.9 ± 0.1 h
same,Effect on cisplatin-induced vomiting (in words),[1]; 10 mg/kg p.o.,almost completely suppressed
same,Effect on the latency (in words),[1]; 10 mg/kg p.o.,prolonged
same,Suppression ratio of acute vomiting,[1]; 10 mg/kg p.o.,93 % b
same,"Duration of vomiting (in hour;, mean ± SD)",[1]; 10 mg/kg p.o.,0.2 ± 0.2 a hour
same,Frequency of vomiting (mean ± SD),[1]; 10 mg/kg p.o.,1.0 ± 0.7 a
same,Number of dogs with vomiting/number of tested dogs,[1]; 10 mg/kg p.o.,2/4
same,"Time period until first vomiting (in hour;, mean ± SD)",[1]; 10 mg/kg p.o.,3.6 ± 0.8 a hour
same,Effect on cisplatin-induced retching and actual vomiting (in words),[2],significantly suppressed
same,Suppression ratio of acute retching,[2],53 % b
same,Suppression ratio of acute vomiting,[2],49 % a
same,"Duration of retching (in minute, mean ± SD)",[2]; 5 hours,2.6 ± 0.3 min
same,"Duration of vomiting (in minute, mean ± SD)",[2]; 5 hours,1.7 ± 0.3 b minute
same,Frequency of retching (mean ± SD),[2]; 5 hours,57.5 ± 6.2 b
same,Frequency of vomiting (mean ± SD),[2]; 5 hours,5.7 ± 1.0 a
same,Number of ferrets with retching /number of tested ferrets,[2]; 5 hours,6/6
same,Number of ferrets with vomiting /number of tested ferrets,[2]; 5 hours,6/6
same,"Time period until first retching (in minute, mean ± SD)",[2]; 5 hours,1.5 ± 0.1 min
same,"Time period until first vomiting (in minute, mean ± SD)",[2]; 5 hours,1.8 ± 0.1 min
same,Effect on methotrexate-induced vomiting (in words),[3]; 0.01 mg/kg or higher p.o.,significantly suppressed
same,Effect on the time period from the occurrence of vomiting to the termination thereof (in words),[3]; 0.01 mg/kg or higher p.o.,significantly shortened
same,Delayed vomiting suppression ratio (24 to 72 hours after MIX dosing),[3]; 0.01 mg/kg p.o. once daily,60 % b
same,Suppression ratio of total frequency of vomiting (0 to 72 hours after MTX dosing),[3]; 0.01 mg/kg p.o. once daily,62 % b
same,Duration (in hour; mean ± SD),[3]; 0.01 mg/kg p.o.,21.8 ± 5.8 a hour
same,"Frequency of vomiting (mean ± SD), Day 0 (0-24 hours)",[3]; 0.01 mg/kg p.o.,0 b
same,"Frequency of vomiting (mean ± SD), Days 1 + 2 (24 - 72 hours)",[3]; 0.01 mg/kg p.o.,4.7 ± 0.7 b
same,Latency (in hour; mean ± SD),[3]; 0.01 mg/kg p.o.,33.8 ± 4.8 h
same,"Frequency of vomiting (mean ± SD), Total frequency",[3]; 0.01 mg/kg p.o.,4.7 ± 0.7 b
same,Number of dogs with vomiting/number of tested dogs,[3]; 0.01 mg/kg p.o.,3/3
same,Delayed vomiting suppression ratio (24 to 72 hours after MIX dosing),[3]; 0.1 mg/kg p.o. once daily,74 % b
same,Suppression ratio of total frequency of vomiting (0 to 72 hours after MTX dosing),[3]; 0.1 mg/kg p.o. once daily,76 % b
same,Duration (in hour; mean ± SD),[3]; 0.1 mg/kg p.o.,15.0 ± 8.0 b hour
same,"Frequency of vomiting (mean ± SD), Day 0 (0-24 hours)",[3]; 0.1 mg/kg p.o.,0 b
same,"Frequency of vomiting (mean ± SD), Days 1 + 2 (24 - 72 hours)",[3]; 0.1 mg/kg p.o.,3.0 ± 1.0 b
same,Latency (in hour; mean ± SD),[3]; 0.1 mg/kg p.o.,35.7 ± 7.1 h
same,"Frequency of vomiting (mean ± SD), Total frequency",[3]; 0.1 mg/kg p.o.,3.0 ± 1.0 b
same,Number of dogs with vomiting/number of tested dogs,[3]; 0.1 mg/kg p.o.,3/3
same,Delayed vomiting suppression ratio (24 to 72 hours after MIX dosing),[3]; 1 mg/kg p.o. once daily,68 % b
same,Suppression ratio of total frequency of vomiting (0 to 72 hours after MTX dosing),[3]; 1 mg/kg p.o. once daily,70 % b
same,Duration (in hour; mean ± SD),[3]; 1 mg/kg p.o.,14.4 ± 6.1 b hour
same,"Frequency of vomiting (mean ± SD), Day 0 (0-24 hours)",[3]; 1 mg/kg p.o.,0 b
same,"Frequency of vomiting (mean ± SD), Days 1 + 2 (24 - 72 hours)",[3]; 1 mg/kg p.o.,3.7 ± 0.7 b
same,Latency (in hour; mean ± SD),[3]; 1 mg/kg p.o.,46.7 ± 8.7 h
same,"Frequency of vomiting (mean ± SD), Total frequency",[3]; 1 mg/kg p.o.,3.7 ± 0.7 b
same,Number of dogs with vomiting/number of tested dogs,[3]; 1 mg/kg p.o.,3/3
same,Delayed vomiting suppression ratio (24 to 72 hours after MIX dosing),[3]; 3 mg/kg p.o. once daily,85 % b
same,Suppression ratio of total frequency of vomiting (0 to 72 hours after MTX dosing),[3]; 3 mg/kg p.o. once daily,86 % b
same,Duration (in hour; mean ± SD),[3]; 3 mg/kg p.o.,6.4 ± 5.9 b hour
same,"Frequency of vomiting (mean ± SD), Day 0 (0-24 hours)",[3]; 3 mg/kg p.o.,0 b
same,"Frequency of vomiting (mean ± SD), Days 1 + 2 (24 - 72 hours)",[3]; 3 mg/kg p.o.,1.7 ± 0.3 b
same,Latency (in hour; mean ± SD),[3]; 3 mg/kg p.o.,45.5 ± 3.3 h
same,"Frequency of vomiting (mean ± SD), Total frequency",[3]; 3 mg/kg p.o.,1.7 ± 0.3 b
same,Number of dogs with vomiting/number of tested dogs,[3]; 3 mg/kg p.o.,3/3
same,Delayed vomiting suppression ratio (24 to 72 hours after MIX dosing),[3]; 10 mg/kg p.o. once daily,97 % b
same,Suppression ratio of total frequency of vomiting (0 to 72 hours after MTX dosing),[3]; 10 mg/kg p.o. once daily,98 % b
same,Duration (in hour; mean ± SD),[3]; 10 mg/kg p.o.,0 b hour
same,Effect on methotrexate-induced vomiting (in words),[3]; 10 mg/kg p.o.,almost completely suppressed
same,"Frequency of vomiting (mean ± SD), Day 0 (0-24 hours)",[3]; 10 mg/kg p.o.,0 b
same,"Frequency of vomiting (mean ± SD), Days 1 + 2 (24 - 72 hours)",[3]; 10 mg/kg p.o.,0.3 ± 0.3 b
same,Latency (in hour; mean ± SD),[3]; 10 mg/kg p.o.,66.2 ± 5.8 b hour
same,"Frequency of vomiting (mean ± SD), Total frequency",[3]; 10 mg/kg p.o.,0.3 ± 0.3 b
same,Number of dogs with vomiting/number of tested dogs,[3]; 10 mg/kg p.o.,1/4
"Cc1nccn1CC1CCc2c(c3ccccc3n2C)C1=O (centres unmarked) [Ondansetron, ondansetron, reference compound]",Delayed vomiting suppression ratio (24 to 72 hours after MIX dosing),[3]; 10 mg/kg p.o. once daily,21 % NS
same,Suppression ratio of total frequency of vomiting (0 to 72 hours after MTX dosing),[3]; 10 mg/kg p.o. once daily,24 % NS
same,Duration (in hour; mean ± SD),[3]; 10 mg/kg p.o.,27.8 ± 2.7 h
same,"Frequency of vomiting (mean ± SD), Day 0 (0-24 hours)",[3]; 10 mg/kg p.o.,0 b
same,"Frequency of vomiting (mean ± SD), Days 1 + 2 (24 - 72 hours)",[3]; 10 mg/kg p.o.,9.3 ± 2.3
same,Latency (in hour; mean ± SD),[3]; 10 mg/kg p.o.,28.6 ± 3.9 h
same,"Frequency of vomiting (mean ± SD), Total frequency",[3]; 10 mg/kg p.o.,9.3 ± 2.3
same,Number of dogs with vomiting/number of tested dogs,[3]; 10 mg/kg p.o.,3/3

# — patent publication EP1145714A1, “DRUGS” (Takeda Chemical Industries, Ltd., priority 1998, dated 2000)
